Test results from US20120270819A1, “USE OF COMPOUNDS WITH SGLT-1/SGLT-2 INHIBITOR ACTIVITY FOR PRODUCING MEDICAMENTS FOR TREATMENT OF BONE DISEASE” (SANOFI, priority 2009, published 2012).

System: female Sprague-Dawley mature and young adult rats
Assay: Biomechanical testing: L3, L4 vertebral compression
Type: in vivo, rat
Details: L3 + L4 vertebral bodies; for AUC (work to failure) / Apparent Strength / Modulus / Peak Load / Stiffness / Toughness / Yield Load / Yield Stress: mean
Procedure: Biomechanical testing was performed using an 858 Mini Bionix Servohydraulic Test System, Model 242.03. All data was collected using TestWorks® version 3.8A for TestStar™ software, version 4.0C.
At necropsy, all specimens were cleaned of excess tissue (not scraped) and individually wrapped in gauze soaked with saline, covered with plastic film and placed in an appropriately labelled plastic bag. Bone samples were retained frozen (ca −20° C.) until subjected to the following biomechanical evaluations:
For compression testing, the vertebral body of the vertebrae was isolated by removing the vertebral arch and removing both inter-vertebral discs. The section obtained had two parallel cut surfaces and the trabecular bone exposed.
The L3 and L4 vertebral body were tested in compression to failure. The loading rate was set at 20 mm/min. Load and displacement data were collected and apparent strength and modulus were calculated using the peak load, stiffness, individual vertebral body height and cross sectional area from the pQCT scans. The work to failure was determined from the area under the curve (AUC) and toughness was calculated. Yield load was originally derived using a 0.2% off-set however a 0.1% off-set was considered more appropriate and yield stress was calculated. All data derived from the 0.2% off-set yield load was kept with the study file but not reported.

Compound: COc1ccc(Cc2c(OC3OC(CO)C(F)C(O)C3O)n[nH]c2C(F)(F)F)cc1 (stereo not drawn) [Example 5 of formula II]
- Yield Stress, percent difference from Vehicle Control (mature adults, 10 mg/kg/day): 2.1%
- AUC (work to failure) (mature adults, 10 mg/kg/day): 21.5 N-mm
- Apparent Strength (mature adults, 10 mg/kg/day): 48.3 MPa
- Modulus (mature adults, 10 mg/kg/day): 2102.6 MPa
- Peak Load (mature adults, 10 mg/kg/day): 375.5 N
- Stiffness (mature adults, 10 mg/kg/day): 5308.6 N/mm
- Toughness (mature adults, 10 mg/kg/day): 0.9 MPa
- Yield Load (mature adults, 10 mg/kg/day): 329.3 N
- Yield Stress (mature adults, 10 mg/kg/day): 42.5 MPa
- AUC (work to failure), percent difference from Vehicle Control (mature adults, 50 mg/kg/day): 22.1%
- Apparent Strength, percent difference from Vehicle Control (mature adults, 50 mg/kg/day): 14.1%
- Modulus, percent difference from Vehicle Control (mature adults, 50 mg/kg/day): 2.5%
- Peak Load, percent difference from Vehicle Control (mature adults, 50 mg/kg/day): 21.6%
- Stiffness, percent difference from Vehicle Control (mature adults, 50 mg/kg/day): 17.8%
- Toughness, percent difference from Vehicle Control (mature adults, 50 mg/kg/day): 20.6%
- Yield Load, percent difference from Vehicle Control (mature adults, 50 mg/kg/day): 16.6%
- Yield Stress, percent difference from Vehicle Control (mature adults, 50 mg/kg/day): 9.2%
- AUC (work to failure) (mature adults, 50 mg/kg/day): 25.4 N-mm
- Apparent Strength (mature adults, 50 mg/kg/day): 53.3 MPa
- Modulus (mature adults, 50 mg/kg/day): 2197.6 MPa
- Peak Load (mature adults, 50 mg/kg/day): 430.6 N
- Stiffness (mature adults, 50 mg/kg/day): 6194.6 N/mm
- Toughness (mature adults, 50 mg/kg/day): 1.1 MPa
- Yield Load (mature adults, 50 mg/kg/day): 368.0 N
- Yield Stress (mature adults, 50 mg/kg/day): 45.5 MPa
- AUC (work to failure), percent difference from Vehicle Control (young adults, 10 mg/kg/day): −9.8%
- Apparent Strength, percent difference from Vehicle Control (young adults, 10 mg/kg/day): 3.5%
- Modulus, percent difference from Vehicle Control (young adults, 10 mg/kg/day): 19.2%
- Peak Load, percent difference from Vehicle Control (young adults, 10 mg/kg/day): 5.2%
- Stiffness, percent difference from Vehicle Control (young adults, 10 mg/kg/day): 12.0%
- Toughness, percent difference from Vehicle Control (young adults, 10 mg/kg/day): −19.6%
- Yield Load, percent difference from Vehicle Control (young adults, 10 mg/kg/day): 8.3%
- Yield Stress, percent difference from Vehicle Control (young adults, 10 mg/kg/day): 6.1%
- AUC (work to failure) (young adults, 10 mg/kg/day): 14.4 N-mm
- Apparent Strength (young adults, 10 mg/kg/day): 34.4 MPa
- Modulus (young adults, 10 mg/kg/day): 1559.1 MPa
- Peak Load (young adults, 10 mg/kg/day): 255.9 N
- Stiffness (young adults, 10 mg/kg/day): 4009.8 N/mm
- Toughness (young adults, 10 mg/kg/day): 0.7 MPa
- Yield Load (young adults, 10 mg/kg/day): 222.5 N
- Yield Stress (young adults, 10 mg/kg/day): 29.9 MPa
- AUC (work to failure), percent difference from Vehicle Control (young adults, 50 mg/kg/day): 2.1%
- Apparent Strength, percent difference from Vehicle Control (young adults, 50 mg/kg/day): 16.4%
- Modulus, percent difference from Vehicle Control (young adults, 50 mg/kg/day): 23.3%
- Peak Load, percent difference from Vehicle Control (young adults, 50 mg/kg/day): 10.2%
- Stiffness, percent difference from Vehicle Control (young adults, 50 mg/kg/day): 10.3%
- Toughness, percent difference from Vehicle Control (young adults, 50 mg/kg/day): 1.5%
- Yield Load, percent difference from Vehicle Control (young adults, 50 mg/kg/day): 9.7%
- Yield Stress, percent difference from Vehicle Control (young adults, 50 mg/kg/day): 15.8%
- AUC (work to failure) (young adults, 50 mg/kg/day): 16.3 N-mm
- Apparent Strength (young adults, 50 mg/kg/day): 38.7 MPa
- Modulus (young adults, 50 mg/kg/day): 1613.3 MPa
- Peak Load (young adults, 50 mg/kg/day): 268.0 N
- Stiffness (young adults, 50 mg/kg/day): 3951.0 N/mm
- Toughness (young adults, 50 mg/kg/day): 0.9 MPa
- Yield Load (young adults, 50 mg/kg/day): 225.4 N
- Yield Stress (young adults, 50 mg/kg/day): 32.7 MPa
